Assay results published in PubChem BioAssay AID1963874 (Molecular Pharmacology Branch, DTP, NCI, 2024).

System: 253994-281-T-J1-PDC KRAS-mutant spheroids with HUVEC/MSC, viability
Assay: Anticancer human tumor 253994-281-T-J1-PDC patient-derived colorectal carcinoma cell line growth inhibition [KRAS2]
Details: for IC50: curve of first compound; for viability, T/C: stronger effect = lower value
In short: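 Combination screen of spheroid viability in tumor-cell co-cultures with endothelial (HUVEC) and mesenchymal stem cell stroma. Each agent was tested in half-log dilutions, topping at clinical Cmax or at 10 microM without a known Cmax.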

[1] = second compound 0.1 µM, first compound 0.0316 µM
[2] = second compound 0.1 µM, first compound 0.1 µM
[3] = second compound 0.1 µM, first compound 0.316 µM
[4] = second compound 0.1 µM, first compound 1 µM
[5] = second compound 0.1 µM, first compound 3.16 µM
[6] = second compound 0.1 µM, first compound 10 µM
[7] = second compound 0.316 µM, first compound 0.0316 µM
[8] = second compound 0.316 µM, first compound 0.1 µM
[9] = second compound 0.316 µM, first compound 0.316 µM
[10] = second compound 0.316 µM, first compound 1 µM
[11] = second compound 0.316 µM, first compound 3.16 µM
[12] = second compound 0.316 µM, first compound 10 µM
[13] = second compound 1 µM, first compound 0.0316 µM
[14] = second compound 1 µM, first compound 0.1 µM
[15] = second compound 1 µM, first compound 0.316 µM
[16] = second compound 1 µM, first compound 1 µM
[17] = second compound 1 µM, first compound 3.16 µM
[18] = second compound 1 µM, first compound 10 µM
[19] = second compound 3.16 µM, first compound 0.0316 µM
[20] = second compound 3.16 µM, first compound 0.1 µM
[21] = second compound 3.16 µM, first compound 0.316 µM
[22] = second compound 3.16 µM, first compound 1 µM
[23] = second compound 3.16 µM, first compound 3.16 µM
[24] = second compound 3.16 µM, first compound 10 µM
[25] = second compound 10 µM, first compound 0.0316 µM
[26] = second compound 10 µM, first compound 0.1 µM
[27] = second compound 10 µM, first compound 0.316 µM
[28] = second compound 10 µM, first compound 1 µM
[29] = second compound 10 µM, first compound 3.16 µM
[30] = second compound 10 µM, first compound 10 µM
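Further: spheroids exposed to agents for seven days before readout.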
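Wherever viability, T/C is given: percent of DMSO vehicle control viability.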

Row | SMILES | IC50 (second compound 0.1 µM) [µM] | IC50 (second compound 0.316 µM) [µM] | IC50 (second compound 1 µM) [µM] | IC50 (second compound 3.16 µM) [µM] | IC50 (second compound 10 µM) [µM] | viability, T/C [1] [%] | viability, T/C [2] [%] | viability, T/C [3] [%] | viability, T/C [4] [%] | viability, T/C [5] [%] | viability, T/C [7] [%] | viability, T/C [8] [%] | viability, T/C [9] [%] | viability, T/C [10] [%] | viability, T/C [11] [%] | viability, T/C [13] [%] | viability, T/C [14] [%] | viability, T/C [15] [%] | viability, T/C [16] [%] | viability, T/C [17] [%] | also measured
1 | CC(C)NCC(C(=O)N1CCN(c2ncnc3c2C(C)CC3O)CC1)c1ccc(Cl)cc1 (stereo not given) + CNCc1ccccc1-c1csc(C(C)Nc2nc(C)nc3cc(OC)c(OC)cc23)c1 | > 10 | > 10 | > 10 | < 0.0316 | < 0.0316 | 110 | 109 | 99.6 | 111 | 94.7 | 110 | 96 | 98.2 | 113 | 107 | 121 | 108 | 88.1 | 103 | 95.2 | viability, T/C [6]: 105%; viability, T/C [12]: 101%; viability, T/C [18]: 99.4%; viability, T/C [19]: 38.1%; viability, T/C [20]: 29.8%; viability, T/C [21]: 24%; viability, T/C [22]: 34.8%; viability, T/C [23]: 24.1%; viability, T/C [24]: 40.1%; viability, T/C [25]: 0.17%; viability, T/C [26]: 0.14%; viability, T/C [27]: 0.14%; viability, T/C [28]: 0.16%; viability, T/C [29]: 0.13%; viability, T/C [30]: 0.27%
2 | COC(=O)c1ccc2c(C(=Nc3ccc(N(C)C(=O)CN4CCN(C)CC4)cc3)c3ccccc3)c(O)[nH]c2c1 + COc1cc2nc(C)nc(NC(C)c3cc(N)cc(C(F)(F)F)c3)c2cc1OC1CCOC1 | 5.28 | 5.43 | 4.65 | 2.29 | 0.721 | 100 | 103 | 103 | 85.1 | 85.6 | 93.6 | 75 | 79.2 | 91.6 | 74.2 | 71.9 | 71.6 | 73.1 | 85.1 | 71.3 | viability, T/C [6]: 9.83%; viability, T/C [12]: 22.8%; viability, T/C [18]: 7.12%; viability, T/C [19]: 73.4%; viability, T/C [20]: 75.4%; viability, T/C [21]: 84.4%; viability, T/C [22]: 74.5%; viability, T/C [23]: 40.2%; viability, T/C [24]: 0.2%; viability, T/C [25]: 68.6%; viability, T/C [26]: 79.1%; viability, T/C [27]: 48.6%; viability, T/C [28]: 54.4%; viability, T/C [29]: 12.4%; viability, T/C [30]: 0.21%
3 | CC1COCCN1c1cc(-c2ccnn2C)c2ccnc(-c3ccn[nH]3)c2n1 (stereo not given) + CNCc1ccccc1-c1csc(C(C)Nc2nc(C)nc3cc(OC)c(OC)cc23)c1 | > 3.16 | > 3.16 | 0.296 | < 0.01 | < 0.01 | 106 | 76.1 | 50.7 | 60.2 | 52.4 | 91.5 | 73.5 | 46.5 | 55.9 | 57.1 | 85.5 | 67.5 | 47 | 54.8 | 42.1 | viability, T/C (second compound 0.1 µM, first compound 0.01 µM): 85.8%; viability, T/C (second compound 0.316 µM, first compound 0.01 µM): 108%; viability, T/C (second compound 1 µM, first compound 0.01 µM): 89.5%; viability, T/C (second compound 3.16 µM, first compound 0.01 µM): 42.9%; viability, T/C [19]: 42%; viability, T/C [20]: 27.3%; viability, T/C [21]: 17.9%; viability, T/C [22]: 24%; viability, T/C [23]: 14.9%; viability, T/C (second compound 10 µM, first compound 0.01 µM): 0.59%; viability, T/C [25]: 0.21%; viability, T/C [26]: 0.17%; viability, T/C [27]: 0.19%; viability, T/C [28]: 0.16%; viability, T/C [29]: 0.23%
